Data reported in patent US8703698B2, “Compositions and methods for treating atherosclerosis” (The University of Chicago, priority 2003, dated 2014).

Key:
J774 macrophages = assay: [3H]cholesterol efflux from cholesterol-loaded J774 macrophages in tissue culture; type: cell-based, mouse; details: for cholesterol efflux compared to equimolar liposomes containing full length murine SAA2.1 protein (FIG. 10): cholesterol-laden J774 cells, equimolar concentrations; for cholesterol efflux as compared to controls (FIGS. 3A and 3B) / dose-response of cholesterol efflux (FIGS. 3A and 3B): liposomes; for cholesterol efflux as compared to controls (FIGS. 3A and 3B): peptide at 1 μM (alone printed 1 μl), cholesterol-laden murine macrophages; for dose-response of cholesterol efflux (FIGS. 3A and 3B): 0.05, 0.1, 0.5, 1.0, 2.5 and 5.0 μM; for total cellular [3H]cholesterol released into the medium: pre-incubated 4 hours with liposomes containing 0.5 μM peptide, then cultured in presence of HDL (50 μg/mL)
ApoE knockout mice [1] = assay: Regression of aortic lesions in ApoE knockout mice on atherogenic diet; type: in vivo; details: for aortic lesions, area stained with Oil Red O, versus high fat diet controls (FIGS. 7A and 7B): liposomes intravenously once every four days for two weeks, 6 mg/kg, after four weeks atherogenic diet; for color of livers versus untreated mice: preliminary examination, ApoE knockout mice on atherogenic diet
Description: In regression experiments, ApoE knockout mice were placed on an atherogenic diet as described in Example 11 for four weeks, following which they were divided into two groups. One group continued on the diet for an additional two weeks. The other group continued on the diet for the same period but also received once every four days liposomes containing a peptide corresponding to amino acids 1-20 of murine SAA2.1 (SEQ ID NO:1; Group B of FIG. 7A and Group hf+p1 of FIG. 7B) or liposomes containing a peptide corresponding to amino acids 74-103 of murine SAA2.1 (SEQ ID NO:4; Group D of FIG. 7A and Group hf+p4 of FIG. 7B). The control group received high fat diet alone with no liposomes (Group A of FIG. 7A and Group high fat of FIG. 7B). An additional group was placed on a normal mouse chow diet (Group C of FIG. 7A and Group low fat of FIG. 7B). A further additional Group receiving liposomes containing a peptide corresponding to amino acids 1-20 of murine SAA2.1 (SEQ ID NO:1) and liposomes containing a peptide corresponding to amino acids 74-103 of murine SAA2.1 (SEQ ID NO:4) is depicted in FIG. 7B and is referred to as hf+p1+p4. FIG. 7B is inclusive of data present in FIG. 7A as well as data from a subsequent experiment performed under the same conditions. After the two weeks, the mice were killed and their aortas were dissected and stained with Oil Red O. Data of FIG. 7A depict the area stained with Oil Red O indicative of the actual lipid positive area as a percentage of the total aortic area viewed. Data of FIG. 7B depict the area stained with Oil Red O as a percentage relative to the high fat diet group (100%).
The efficacy of SAA2.1 peptides in regression of atherosclerosis was examined. The peptides tested included SEQ ID NO:1 and SEQ ID NO:4. The peptides were injected intravenously once every four (4) days during atherogenic induction for a period of 2 weeks (i.e. four doses at 6 mg/kg).
To determine if these peptides cause regression of atherosclerosis, the animals were placed on an atherogenic diet (Paigen's Atherogenic Rodent Diet: Purina 5015 with cocoa butter, cholesterol and cholic acid (CI3002, Research Diets, Inc.)) for […], following which they were divided into two groups of 5 animals each. One group continued on the diet for an additional two weeks. […]
To assess the effects of the peptides on aortic atherosclerosis, at the termination of the experiment, the aorta was removed from the animals and opened longitudinally. The endothelial surface was stained with Oil Red O and the area occupied by lipid was measured by image analysis. Furthermore, histological sections of aorta were prepared for microscopic analysis and total lipids were isolated to measure the quantity of cholesterol per wet weight of tissue. […]

ApoE knockout mice [2] = assay: Prevention of aortic lesions in ApoE knockout mice on high fat diet; type: in vivo; details: liposomes intravenously once every four days, five doses at 6 mg/kg; 20 days high fat diet
Description: In prevention experiments, ApoE knockout mice were placed on a high fat diet and at the same time received once every four days liposomes containing a peptide corresponding to amino acids 1-20 of murine SAA2.1 (SEQ ID NO:1; Group 2 of FIG. 8A and Group hf+p1 of FIG. 8B), liposomes containing a peptide corresponding to amino acids 74-103 of murine SAA2.1 (SEQ ID NO:4; Group 4 of FIG. 8A and Group hf+p4 of FIG. 8B) or liposomes containing a peptide corresponding to amino acids 1-20 of murine SAA2.1 and a peptide corresponding to amino acids 74-103 of murine SAA2.1 (SEQ ID NO:1+SEQ ID NO:4; Group 5 of FIG. 8A and Group hf+p(1+4) of FIG. 8B). The control group received high fat diet alone with no liposomes (Group 1 of FIG. 8A and Group high fat of FIG. 8B). An additional group was placed on a normal mouse chow diet (Group 3 of FIG. 8A and Group low fat of FIG. 8B). […]
To assess the effects of the peptides on aortic atherosclerosis, at the termination of the experiment, the aorta was removed from the animals and opened longitudinally. The endothelial surface was stained with Oil Red O and the area occupied by lipid was measured by image analysis. Furthermore, histological sections of aorta were prepared for microscopic analysis and total lipids were isolated to measure the quantity of cholesterol per weight of tissue. […]

[3] = tested on: hepatic, macrophage, and pancreatic cholesterol esterase; details: Lindhorst 1997; Ely 2001; Tam 2002; cited from earlier work

## DTIADQEANRHGRSGKDPNYYRPPGLPDKY [SEQ ID NO:4, synthetic peptide, residues 74-103 of murine SAA2.1]
J774 macrophages
  cholesterol efflux compared to equimolar liposomes containing full length murine SAA2.1 protein (FIG. 10): statistically significant greater cholesterol efflux
  cholesterol efflux as compared to controls (FIGS. 3A and 3B): approximately 200%
  dose-response of cholesterol efflux (FIGS. 3A and 3B): increased with increasing amounts of each peptide alone
  total cellular [3H]cholesterol released into the medium: 46.7 ± 3.1%
J774 macrophages; pre-incubation with liposomes containing 0.5 μM peptide, HDL as acceptor
  rate of [3H]cholesterol efflux into medium containing HDL: significant increase in the rate
ApoE knockout mice [1]
  aortic lesions, area stained with Oil Red O, versus high fat diet controls (FIGS. 7A and 7B): showed regression of aortic lesions
  color of livers versus untreated mice: more normal reddish color
ApoE knockout mice [2]
  aortic lesions, area stained with Oil Red O, versus control animals (FIGS. 8A and 8B): showed decreased aortic lesions

## GFFSFVHEAFQGAGDMWRAY [SEQ ID NO:1, synthetic peptide, residues 1-20 of murine SAA2.1]
J774 macrophages
  cholesterol efflux compared to equimolar liposomes containing full length murine SAA2.1 protein (FIG. 10): statistically significant greater cholesterol efflux
  cholesterol efflux as compared to controls (FIGS. 3A and 3B): approximately 200%
  dose-response of cholesterol efflux (FIGS. 3A and 3B): increased with increasing amounts of each peptide alone
  total cellular [3H]cholesterol released into the medium: 60.6 ± 3.6%
ApoE knockout mice [1]
  aortic lesions, area stained with Oil Red O, versus high fat diet controls (FIGS. 7A and 7B): showed regression of aortic lesions
  color of livers versus untreated mice: more normal reddish color
ApoE knockout mice [2]
  aortic lesions, area stained with Oil Red O, versus control animals (FIGS. 8A and 8B): showed decreased aortic lesions

B1: GFFSFVHEAFQGAGDMWRAYTDMKEANWKNSDKYFHARGNYDAAQRGPGGVWAAEKISD GREAFQEFFGRGHEDTIADQEANRHGRSGKDPNYYRPPGLPDKY (protein, listed as Mus musculis)
chain: GFFSFVHEAFQGAGDMWRAYTDMKEANWKNSDKYFHARGNYDAAQRGPGGVWAAEKISDGREAFQEFFGRGHEDTIADQEANRHGRSGKDPNYYRPPGLPDKY
notes: full length murine serum amyloid A isoform 2.1 purified from acute phase plasma
[3]
  cholesterol esterase activities in vitro: stimulate hepatic, macrophage, and pancreatic cholesterol esterase activities in vitro
